# Reference: patent US20230303540A1 (Merck Sharp & Dohme LLC, priority 2020, published 2023)
# Biological target: GST-tagged truncated human mutant G2019S LRRK2 (Homo sapiens, UniProt Q5S007, G2019S)
# Test: LRRK2 G2019S Km ATP LanthaScreen assay
# Type: biochemical
# Conditions: 134 μM ATP (Km ATP), LRRKtide substrate, mean IC50 values; read-out: LRRK2 pIC50 (converted)
# In short: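 Compound preincubated 15 min at room temperature with enzyme in pH 8.5 Tris buffer (10 mM MgCl2). Then a 90 min reaction at ambient temperature with 134 μM (Km) ATP and fluorescein-LRRKtide. EDTA stop, Tb anti-phospho antibody TR-FRET; […]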
row,Compound,IC50
1,"CC1(O)CC2(CN(c3cc4nc(Nc5cnn(C6(C)CC6)c5Cl)ncc4cc3Cl)C2)C1 [Ex-4.27, 2-(6-chloro-2-{[5-chloro-1-(1-methylcyclopropyl)-1H-pyrazol-4-yl]amino}quinazolin-7-yl)-6-methyl-2-azaspiro[3.3]heptan-6-ol]",1.6 nM
2,"CC1(N2CCN(c3cc4nc(Nc5cnn(CC6(C#N)CC6)c5)ncc4cc3Cl)CC2)COC1 [Ex-4.53, 1-{[4-({6-chloro-7-[4-(3-methyloxetan-3-yl)piperazin-1-yl]quinazolin-2-yl}amino)-1H-pyrazol-1-yl]methyl}cyclopropane-1-carbonitrile]",1.82 nM
3,"CC(C)Nc1ccc2cnc(Nc3cnn(C4CCN(C5(C)COC5)CC4)c3)nc2c1 [Ex-4.9, N~2~-{1-[1-(3-methyloxetan-3-yl)piperidin-4-yl]-1H-pyrazol-4-yl}-N~7~-(propan-2-yl)quinazoline-2,7-diamine]",9.16 nM
4,"O[C@@H]1COC[C@@H]1N1CCN(c2cc3nc(Nc4cnn(C5CC5)c4Cl)ncc3cc2Cl)CC1 (single isomer, unassigned) [Ex-3.51, (3R,4R) or (3S,4S) 4-(4-{6-chloro-2-[(5-chloro-1-cyclopropyl-1H-pyrazol-4-yl)amino]quinazolin-7-yl}piperazin-1-yl)oxolan-3-ol]",16.3 nM
5,"Cc1c(Nc2ncc3cc(Cl)c(N4CCN(C5COCC5O)CC4)cc3n2)cnn1C(F)F (single isomer, unassigned) [Ex-13.7, (3S,4S) or (3R, 4R)-4-(4-(6-chloro-2-((1-(difluoromethyl)-5-methyl-1H-pyrazol-4-yl)amino)quinazolin-7-yl)piperazin-1-yl)tetrahydrofuran-3-ol]",31.6 nM
6,"CCC1(N2CCN(c3cc4nc(Nc5cnn(C6(C)CC6)c5Cl)ncc4cc3Cl)CC2)COC1 [Ex-4.29, 6-chloro-N-[5-chloro-1-(1-methylcyclopropyl)-1H-pyrazol-4-yl]-7-[4-(3-ethyloxetan-3-yl)piperazin-1-yl]quinazolin-2-amine]",5.28 nM
7,"Cc1c(Nc2ncc3cc(Cl)c(N4CCN(C5COCC5O)CC4)nc3n2)cnn1C1CC1 (single isomer, unassigned) [Ex-16.4, (3S,4S) or (3R,4R)-4-(4-{6-chloro-2-[(1-cyclopropyl-5-methyl-1H-pyrazol-4-yl)amino]pyrido[2,3-d]pyrimidin-7-yl}piperazin-1-yl)oxolan-3-ol]",83.8 nM
8,"CC1(N2CCN(c3cc4nc(Nc5cnn(CC6C[C@H](F)[C@@H](F)C6)c5)ncc4cc3Cl)CC2)COC1 [Ex-4.66, 6-chloro-N-(1-{[(3S,4S)-3,4-difluorocyclopentyl]methyl}-1H-pyrazol-4-yl)-7-[4-(3-methyloxetan-3-yl)piperazin-1-yl]quinazolin-2-amine]",8.88 nM
9,"CC1(O)CCN(c2cc3nc(Nc4cnn(C5(C)CC5)c4Cl)ncc3cc2Cl)CC1 [Ex-4.34, 1-(6-chloro-2-{[5-chloro-1-(1-methylcyclopropyl)-1H-pyrazol-4-yl]amino}quinazolin-7-yl)-4-methylpiperidin-4-ol]",0.625 nM
10,"Cc1nn(C2C[C@@H](C)O[C@@H](C)C2)cc1Nc1ncc2ccc(N3C(=O)OC[C@@H]3C)cc2n1 (stereo partly drawn) [Ex-7.5, (4S)-3-[2-({1-[(2R,6S)-2,6-dimethyloxan-4-yl]-3-methyl-1H-pyrazol-4-yl}amino)quinazolin-7-yl]-4-methyl-1,3-oxazolidin-2-one]",33.7 nM
11,"C[C@@H]1CN(C2COC2)CC[C@@H]1n1ncc(Nc2ncc3ccc(N4C(=O)OC[C@@H]4C)cc3n2)c1Cl [Ex-8.11, (4.5)-3-[2-({5-chloro-1-[(3R,4S)-3-methyl-1-(oxetan-3-yl)piperidin-4-yl]-1H-pyrazol-4-yl}amino)quinazolin-7-yl]-4-methyl-1,3-oxazolidin-2-one]",1.59 nM
12,"CC1(N2CCN(c3cc4nc(Nc5cnn(C6CC6(F)F)c5Cl)ncc4cc3Cl)CC2)COC1 (single isomer, unassigned) [Ex-4.60, 6-chloro-N-[5-chloro-1-(2,2-(R) or (S)difluorocyclopropyl)-1H-pyrazol-4-yl]-7-[4-(3-methyloxetan-3-yl)piperazin-1-yl]quinazolin-2-amine]",3.24 nM
13,"CC1CN(c2cc3nc(Nc4cnn(C5CC5)c4Cl)ncc3cc2Cl)CCN1C1COCC1O (single isomer, unassigned) [Ex-12.6, (3S,4S) or (3R, 4R)-4-((R) or (S)-4-(4-(6-chloro-2-((5-chloro-1-cyclopropyl-1H-pyrazol-4-yl)amino)quinazolin-7-yl)-2-methylpiperazin-1-yl)tetrahydrofuran-3-ol]",13.6 nM
14,"CC1(N2CCN(c3cc4nc(Nc5cnn(CC(F)(F)F)c5)ncc4cc3Cl)CC2)COC1 [Ex-4.19, 6-chloro-7-[4-(3-methyloxetan-3-yl)piperazin-1-yl]-N-[1-(2,2,2-trifluoroethyl)-1H-pyrazol-4-yl]quinazolin-2-amine]",3.03 nM
15,"Cc1c(Nc2ncc3cc(Cl)c(N4CCN(C5(C)COC5)CC4)cc3n2)cnn1CCF [Ex-4.12, 6-chloro-N-[1-(2-fluoroethyl)-5-methyl-1H-pyrazol-4-yl]-7-[4-(3-methyloxetan-3-yl)piperazin-1-yl]quinazolin-2-amine]",0.625 nM
16,"C[C@H]1COC(=O)N1c1ccc2cnc(Nc3cn(C4CCCCC4)nc3Cl)nc2c1 [Ex-10.1, (S)-3-(2-((3-Chloro-1-cyclohexyl-1H-pyrazol-4-yl)amino)quinazolin-7-yl)-4-methyloxazolidin-2-one]",7.01 nM
17,"C[C@H]1CN(c2cc3nc(Nc4cnn(C5(C)CC5)c4Cl)ncc3cc2Cl)CCN1C1COC1 [Ex-4.41, 6-chloro-N-[5-chloro-1-(1-methylcyclopropyl)-1H-pyrazol-4-yl]-7-[(3S)-3-methyl-4-(oxetan-3-yl)piperazin-1-yl]quinazolin-2-amine]",1.91 nM
18,"CC1(O)CCN(c2cc3nc(Nc4cnn(C5CC5)c4Cl)ncc3cc2C#N)CC1 [Ex-3.54, 2-[(5-chloro-1-cyclopropyl-1H-pyrazol-4-yl)amino]-7-(4-hydroxy-4-methylpiperidin-1-yl)quinazoline-6-carbonitrile]",8.43 nM
19,"C[C@H]1COC(=O)N1c1ccc2cnc(Nc3cnn(CC(F)(F)F)c3)nc2c1 [Ex-7.21, (4S)-4-methyl-3-(2-{[1-(2,2,2-trifluoroethyl)-1H-pyrazol-4-yl]amino}quinazolin-7-yl)-1,3-oxazolidin-2-one]",0.625 nM
20,"CCn1ncc(Nc2ncc3ccc(N4C(=O)C5CCC4C5)cc3n2)c1C (stereo not drawn) [Ex-7.19, 2-{2-[(1-ethyl-5-methyl-1H-pyrazol-4-yl)amino]quinazolin-7-yl}-2-azabicyclo[2.2.1]heptan-3-one]",2.53 nM
21,"CC1CCC12CN(c1cc3nc(Nc4cnn(C5(C)CC5)c4Cl)ncc3cc1Cl)C2 (stereo not drawn) [Ex-4.24, 6-chloro-N-[5-chloro-1-(1-methylcyclopropyl)-1H-pyrazol-4-yl]-7-(5-methyl-2-azaspiro[3.3]heptan-2-yl)quinazolin-2-amine]",218 nM
22,"CN1CCC2(CCN(c3cc4nc(Nc5cnn(C6(C)CC6)c5Cl)ncc4cc3Cl)C2)C1 (stereo not drawn) [Ex-4.42, 6-chloro-N-[5-chloro-1-(1-methylcyclopropyl)-1H-pyrazol-4-yl]-7-(7-methyl-2,7-diazaspiro[4.4]nonan-2-yl)quinazolin-2-amine]",6.55 nM
23,"CCn1ncc(Nc2ncc3ccc(N4C(=O)C5CCC4C5)cc3n2)c1C (stereo not drawn) [Ex-7.20, 2-{2-[(1-ethyl-5-methyl-1H-pyrazol-4-yl)amino]quinazolin-7-yl}-2-azabicyclo[2.2.1]heptan-3-one]",11.3 nM
24,"CC1(N2CCN(c3cc4nc(Nc5cnn(C6CC6(F)F)c5Cl)ncc4cc3Cl)CC2)COCC1O (single isomer, unassigned) [Ex-6.33, (3S,4S) or (3R,4R) 4-[4-(6-chloro-2-{[5-chloro-1-(2,2-(R) or (S)difluorocyclopropyl)-1H-pyrazol-4-yl]amino}quinazolin-7-yl)piperazin-1-yl]-4-methyloxolan-3-ol]",0.212 nM
25,"Cc1c(Nc2cc3cc(N4CCN(C5(C)COCC5O)CC4)c(Cl)cc3cn2)cnn1C1CC1 (single isomer, unassigned) [Ex-6.51, (3S,4S) or (3R,4R) 4-(4-(7-chloro-3-((1-cyclopropyl-5-methyl-1H-pyrazol-4-yl)amino)isoquinolin-6-yl)piperazin-1-yl)-4-methyltetrahydrofuran-3-ol]",1.35 nM
26,"CC1(N2CCN(c3cc4nc(Nc5cnn(C6CC(F)C6)c5Cl)ncc4cc3Cl)CC2)COC1 (stereo not drawn) [Ex-3.21, 6-chloro-N-[5-chloro-1-(3-fluorocyclobutyl)-1H-pyrazol-4-yl]-7-[4-(3-methyloxetan-3-yl)piperazin-1-yl]quinazolin-2-amine]",4.01 nM
27,"CC1(n2ncc(Nc3ncc4cc(Cl)c(N5CC6(CN(CC(F)(F)F)C6)C5)cc4n3)c2Cl)CC1 [Ex-4.38, 6-chloro-N-[5-chloro-1-(1-methylcyclopropyl)-1H-pyrazol-4-yl]-7-[6-(2,2,2-trifluoroethyl)-2,6-diazaspiro[3.3]heptan-2-yl]quinazolin-2-amine]",29.4 nM
28,"Cc1c(Nc2ncc3cc(Cl)c(N4CCN(C5COCC5O)CC4)cc3n2)cnn1CC(F)F (single isomer, unassigned) [Ex-6.25, (3S,4S) or (3R,4R) 4-[4-(6-chloro-2-{[1-(2,2-difluoroethyl)-5-methyl-1H-pyrazol-4-yl]amino}quinazolin-7-yl)piperazin-1-yl]oxolan-3-ol]",0.418 nM
29,"CCn1ncc(Nc2ncc3ccc(N4C(=O)OCC4C4CC4)cc3n2)c1C (single isomer, unassigned) [Ex-7.16, (R) or (S) 4-cyclopropyl-3-{2-[(1-ethyl-5-methyl-1H-pyrazol-4-yl)amino]quinazolin-7-yl}-1,3-oxazolidin-2-one]",0.625 nM
30,"CO[C@H]1C[C@@H](n2ncc(Nc3ncc4cc(Cl)c(N5CCC(C)(O)CC5)cc4n3)c2C)C1 [Ex-6.14, 1-(6-chloro-2-{[1-(cis-3-methoxycyclobutyl)-5-methyl-1H-pyrazol-4-yl]amino}quinazolin-7-yl)-4-methylpiperidin-4-ol]",1.65 nM
